# Values quoted from earlier work in US20230330298A1 (priority 2022, published 2023).
# Tested on: Clostridium botulinum spores
Structure (SMILES),Sporicidal Minimal Inhibitory Concentration,Sporostatic Minimal Inhibitory Concentration
O=Cc1ccccc1 [Benzaldehyde],625 mM,0.6 mM
O=CC=Cc1ccccc1 [Cinnamaldehyde],>2500 mM,9.8 mM
O=Cc1ccc2c(c1)OCO2 [Piperonal],>2500 mM,0.6 mM
COc1cc(C=O)ccc1O [Vanillin],125 mM,0.6 mM

# Tested on: bacterial spores
row,Structure (SMILES),Sporicidal effect (in words)
1,CCCCCCCCCCCC(=O)OCC(O)CO (stereo not shown) [Monolaurin],kill bacterial spores
2,CCCCCCCCCCCCCCCCCC(=O)OCC(O)CO (stereo not shown) [glycerol monostearate],kill bacterial spores
